Measurements published in ChEMBL document CHEMBL4680205, “Multifunctional 6-fluoro-3-[3-(pyrrolidin-1-yl)propyl]-1,2-benzoxazoles targeting behavioral and psychological symptoms of dementia (BPSD)” (Eur J Med Chem, 2020).
Values belong to the molecule of their own block, whether it stands above or below them.

Assays:
[1] = target: T1, 5-hydroxytryptamine receptor 7 (Homo sapiens, UniProt P34969); conditions: CHO-K1, filed as antagonist, time 1.0 hrs
[2] = target: T2, Alpha-2C adrenergic receptor (Homo sapiens, UniProt P18825); test: Antagonist activity at recombinant human adrenergic receptor alpha2c expressed in CHO-K1 cells assessed inhibition of epinephrine-induced cAMP accumulation measured after 10 mins by HTRF assay; assay type: cell-based; conditions: cho-k1, 10 min
T2 sequence (P18825 whole entry): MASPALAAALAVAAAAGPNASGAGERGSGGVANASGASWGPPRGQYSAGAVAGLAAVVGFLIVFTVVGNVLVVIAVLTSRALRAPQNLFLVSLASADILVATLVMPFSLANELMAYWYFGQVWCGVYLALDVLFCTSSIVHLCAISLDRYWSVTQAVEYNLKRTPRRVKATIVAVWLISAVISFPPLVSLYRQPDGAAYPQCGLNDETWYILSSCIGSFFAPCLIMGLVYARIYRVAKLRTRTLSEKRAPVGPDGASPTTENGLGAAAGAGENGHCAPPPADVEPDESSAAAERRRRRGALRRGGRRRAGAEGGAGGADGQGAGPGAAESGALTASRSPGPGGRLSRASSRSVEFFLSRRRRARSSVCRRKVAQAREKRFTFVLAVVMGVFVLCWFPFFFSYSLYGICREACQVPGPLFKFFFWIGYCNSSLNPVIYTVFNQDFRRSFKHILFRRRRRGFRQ

[3] = target: 5-hydroxytryptamine receptor 2A (Homo sapiens, UniProt P28223); assay type: cell membranes, CHO-K1, Membrane
5-hydroxytryptamine receptor 2A, sequence (P28223 whole entry): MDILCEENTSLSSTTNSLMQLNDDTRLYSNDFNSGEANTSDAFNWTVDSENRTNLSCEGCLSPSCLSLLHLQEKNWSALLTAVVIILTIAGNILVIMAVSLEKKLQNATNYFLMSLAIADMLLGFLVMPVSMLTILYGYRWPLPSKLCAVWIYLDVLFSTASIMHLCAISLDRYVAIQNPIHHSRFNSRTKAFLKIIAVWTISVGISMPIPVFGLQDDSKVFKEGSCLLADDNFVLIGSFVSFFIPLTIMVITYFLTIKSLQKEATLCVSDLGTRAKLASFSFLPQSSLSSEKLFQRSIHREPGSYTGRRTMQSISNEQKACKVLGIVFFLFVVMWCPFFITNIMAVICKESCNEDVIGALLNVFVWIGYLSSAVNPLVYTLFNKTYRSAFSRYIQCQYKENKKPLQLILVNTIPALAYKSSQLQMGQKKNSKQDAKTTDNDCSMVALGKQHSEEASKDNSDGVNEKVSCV

[4] = target: T1, 5-hydroxytryptamine receptor 7; assay type: cell membranes, CHO-K1, Membrane
[5] = target: D(2) dopamine receptor (Homo sapiens) (UniProt P14416); conditions: CHO-K1, filed as antagonist, time 15-31 min
D(2) dopamine receptor (Homo sapiens), sequence (P14416 whole entry): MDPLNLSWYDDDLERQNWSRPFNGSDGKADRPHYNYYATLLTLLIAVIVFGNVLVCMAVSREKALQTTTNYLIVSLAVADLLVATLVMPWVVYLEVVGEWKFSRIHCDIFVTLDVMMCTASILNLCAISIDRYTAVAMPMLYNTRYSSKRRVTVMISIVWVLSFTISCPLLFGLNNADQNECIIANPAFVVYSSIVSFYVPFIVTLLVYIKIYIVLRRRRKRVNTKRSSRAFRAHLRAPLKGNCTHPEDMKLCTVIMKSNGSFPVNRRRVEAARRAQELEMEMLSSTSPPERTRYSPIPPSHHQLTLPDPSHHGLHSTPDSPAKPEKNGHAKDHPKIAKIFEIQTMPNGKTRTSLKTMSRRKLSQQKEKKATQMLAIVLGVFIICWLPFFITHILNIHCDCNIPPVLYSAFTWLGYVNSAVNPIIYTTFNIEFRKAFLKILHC

[6] = target: T3, 5-hydroxytryptamine receptor 2C (Homo sapiens, UniProt P28335); test: Antagonist activity at recombinant human 5HT2C receptor expressed in HEK293 cells assessed as inhibition of serotonin-induced inositol phosphate accumulation measured after 30 mins by HTRF assay; assay type: cell-based; conditions: hek293, 0.5 h
T3 sequence (P28335 whole entry): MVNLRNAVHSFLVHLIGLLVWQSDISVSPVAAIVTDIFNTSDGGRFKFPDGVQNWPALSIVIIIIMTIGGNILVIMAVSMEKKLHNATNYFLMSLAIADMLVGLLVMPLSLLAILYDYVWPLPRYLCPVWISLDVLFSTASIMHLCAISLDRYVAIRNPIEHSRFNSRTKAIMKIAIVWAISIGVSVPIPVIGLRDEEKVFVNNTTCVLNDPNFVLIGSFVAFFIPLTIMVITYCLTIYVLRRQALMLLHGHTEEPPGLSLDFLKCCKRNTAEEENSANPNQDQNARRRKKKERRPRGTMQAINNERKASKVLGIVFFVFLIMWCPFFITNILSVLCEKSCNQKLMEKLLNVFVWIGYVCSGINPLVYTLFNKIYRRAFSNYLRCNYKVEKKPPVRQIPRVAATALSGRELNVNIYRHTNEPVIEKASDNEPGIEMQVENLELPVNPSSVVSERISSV

[7] = Psychoactive effect in ip dosed CD-1 mouse assessed as catalepsy effect measured after 30 to 120 mins by bar test; assay type: ADME, organism-based; conditions: in vivo, time 30-120 min
[8] = Sedative activity in ip dosed Swiss albino mouse assessed as effect spontaneous locomotor activity measured during 2 to 6 mins of test; assay type: ADME, organism-based; conditions: in vivo, time 2-6 min
[9] = species: Mus musculus; test: animal or person; conditions: Swiss, ip, 0.1 h, read-out: MED
[10] = species: Mus musculus; test: animal or person; conditions: CD-1, ip, 2 h, read-out: MED
[11] = Sedative activity in ip dosed CD-1 mouse assessed as effect spontaneous locomotor activity measured at 5 mins interval for 120 mins; assay type: ADME, organism-based; conditions: in vivo, 2 h
[12] = species: Mus musculus; test: animal or person; conditions: CD-1, ip, 2 h, read-out: MED; remark: listed apart in the source
[13] = mouse, in vivo, ip, 0.5 h

T1 sequence (P34969 whole entry): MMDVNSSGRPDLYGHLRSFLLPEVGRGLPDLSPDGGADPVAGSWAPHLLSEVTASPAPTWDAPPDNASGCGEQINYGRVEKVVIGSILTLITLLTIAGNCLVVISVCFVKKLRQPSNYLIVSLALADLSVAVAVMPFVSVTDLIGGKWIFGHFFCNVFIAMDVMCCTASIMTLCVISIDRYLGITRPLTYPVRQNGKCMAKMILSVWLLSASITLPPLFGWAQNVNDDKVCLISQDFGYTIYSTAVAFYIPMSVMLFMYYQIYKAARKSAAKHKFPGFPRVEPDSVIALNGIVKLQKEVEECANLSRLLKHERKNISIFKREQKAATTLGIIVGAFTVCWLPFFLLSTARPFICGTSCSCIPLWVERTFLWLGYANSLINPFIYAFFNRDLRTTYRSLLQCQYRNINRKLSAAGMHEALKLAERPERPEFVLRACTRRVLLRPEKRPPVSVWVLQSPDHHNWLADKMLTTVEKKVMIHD

pKb [1]: 9.55
Structure (SMILES): CC1CCN(CC[C@H]2CCCN2S(=O)(=O)c2cccc(O)c2)CC1

pKb [2]: 8.62
Structure (SMILES): COC(=O)[C@H]1[C@H]2C[C@H]3c4[nH]c5ccccc5c4CCN3C[C@H]2CC[C@@H]1O [RAUWOLSCINE]

Ki [3]: 1.02 nM
Ki [4]: 12.9 nM
Structure (SMILES): Cc1cccc(S(=O)(=O)N[C@H]2CCN(CCCc3noc4cc(F)ccc34)C2)c1

pKb [5]: 8.84
Structure (SMILES): CN(C)CCCN1c2ccccc2Sc2ccc(Cl)cc21

Ki [4]: 1.7 nM
Structure (SMILES): Cc1cccc(S(=O)(=O)N[C@@H]2CCN(CCCc3noc4cc(F)ccc34)C2)c1

pKb [6]: 8.39
Structure (SMILES): Cn1ccc2cc3c(cc21)CCN3C(=O)Nc1cccnc1

Ki [3]: 6.46 nM
Ki [4]: 25.7 nM
Structure (SMILES): O=S(=O)(N[C@H]1CCN(CCCc2noc3cc(F)ccc23)C1)c1ccc(F)c(Cl)c1

Structure (SMILES): OCCOCCN1CCN(C2=Nc3ccccc3Sc3ccccc32)CC1 [QUETIAPINE]
MED [7]: 30 mg/kg
MED [8]: 10 mg/kg
minimal effective dose [9]: 10 mg/kg
minimal effective dose [10]: 10 mg/kg
MED [11]: 10 mg/kg
minimal effective dose [12]: 5 mg/kg

MED [13]: > 2.5 mg/kg
Structure (SMILES): O=C1CCc2ccc(OCCCCN3CCN(c4cccc(Cl)c4Cl)CC3)cc2N1 [ARIPIPRAZOLE]

Ki [3]: 5.25 nM
Ki [4]: 1.45 nM
Structure (SMILES): O=S(=O)(N[C@@H]1CCN(CCCc2noc3cc(F)ccc23)C1)c1ccc(F)c(Cl)c1
